# Like-named read-outs stand apart in the source and are kept apart here.
# What was measured:
# Assay type in all cases: in vivo
# Sphaerotheca fuliginea = test: Sphaerotheca test (cucumber)/protective; conditions: for pest or weed control at 2.5 g/ha: application rate 2.5 g/ha
# Procedure: Sphaerotheca Test (Cucumber)/Protective
# (§1) • Solvent: 47 parts by weight of acetone • Emulsifier: 3 parts by weight of alkylaryl polyglycol ether
# After the spray coating has dried on, the plants are inoculated with an aqueous spore suspension of Sphaerotheca fuliginea. The plants are then placed in a greenhouse at about 23° C. and a relative atmospheric humidity of about 70%.
# Evaluation is carried out 10 days after the inoculation.
# [1] = tested on: Erysiphe graminis f. sp. tritici; test: Erysiphe test (wheat)/curative; conditions: curative, single active compound, 7 days after inoculation
# Procedure: Erysiphe Test (Wheat)/Curative
# (§2) • Solvent: 10 parts by weight of N-methyl-pyrrolidone • Emulsifier: 0.6 parts by weight of alkylaryl polyglycol ether
# (§3) To produce a suitable preparation of active compound, 1 part by weight of active compound or active compound combination is mixed with the stated amounts of solvent and emulsifier, and the concentrate is diluted with water to the desired concentration, or a commercial formulation of active compound or active compound combination is diluted with water to the desired concentration.
# To test for curative activity, young plants are dusted with spores of Erysiphe graminis f. sp. tritici. 48 hours after the inoculation, the plants are sprayed with the active compound preparation at the stated application rate.
# (§4) The plants are then placed in a greenhouse at a temperature of about 20° C. and a relative atmospheric humidity of about 80% to promote the development of mildew pustules.
# (§5) Evaluation is carried out 7 days after the inoculation. 0% means an efficacy which corresponds to that of the control, whereas an efficacy of 100% means that no infection is observed.
# [2] = tested on: Erysiphe graminis f. sp. tritici; test: Erysiphe test (wheat)/protective; conditions: protective, single active compound, application rate 6.25 g/ha, 7 days after inoculation
# Procedure: Erysiphe Test (Wheat)/Protective
# as §2, §3
# (§6) To test for protective activity, young plants are sprayed with the active compound preparation at the stated application rate.
# After the spray coating has dried on, the plants are dusted with spores of Erysiphe graminis f. sp. tritici.
# as §4, §5
# Rhizoctonia solani = Rhizoctonia solani test (cotton)/seed treatment; conditions: dry seed dressing, single active compound, application rate 25 g/ha, evaluation after 8 days
# Procedure: Rhizoctonia solani Test (Cotton)/Seed Treatment
# (§7) The active compounds are applied as a dry seed dressing. This is prepared by extending the respective active compound or the active compound combination with ground minerals to give a finely pulverulent mixture which ensures uniform distribution on the seed surface.
# (§8) To dress the seed, the infected seed together with the seed dressing is shaken for 3 minutes in a sealed glass flask.
# 2×50 corns of seed are sown at a depth of 2 cm in standard soil infected with Rhizoctonia solani, and the seeds are cultivated in a greenhouse at a temperature of about 22° C. in seed trays which receive a light regimen of 15 hours per day.
# Evaluation is carried out after 8 days. 0% means an efficacy which corresponds to that of the control, whereas an efficacy of 100% means that no infection is observed.
# Fusarium culmorum = Fusarium culmorum test (wheat)/seed treatment; conditions: dry seed dressing, single active compound, application rate 75 g/ha as printed, about 3 weeks after sowing
# Procedure: Fusarium culmorum Test (Wheat)/Seed Treatment
# as §7, §8
# 2×100 corns of wheat are sown at a depth of 1 cm in standard soil and cultivated in a greenhouse at a temperature of about 18° C. and a relative atmospheric humidity of about 95% in seed trays which receive a light regimen of 15 hours per day.
# (§9) About 3 weeks after sowing, the plants are evaluated for symptoms. 0% means an efficacy which corresponds to that of the control, whereas an efficacy of 100% means that no infection is observed.
# [3] = tested on: Erysiphe graminis f. sp. hordei; test: Erysiphe test (barley)/protective; conditions: protective per Example 4 (table title prints curative), single active compound, application rate 25 g/ha, 7 days after inoculation
# Procedure: Erysiphe Test (Barley)/Protective
# as §2, §3, §6
# After the spray coating has dried on, the plants are dusted with spores of Erysiphe graminis f. sp. hordei.
# (§10) The plants are placed in a greenhouse at a temperature of about 20° C. and a relative atmospheric humidity of about 80% to promote the development of mildew pustules.
# as §5
# Venturia inaequalis = test: Venturia test (apple)/protective; conditions: protective, single active compound, application rate 1 g/ha, evaluation 12 days after inoculation
# Procedure: Venturia Test (Apple)/Protective
# as §1, §3
# To test for protective activity, young plants are sprayed with the active compound preparation at the stated application rate. After the spray coating has dried on, the plants are inoculated with an aqueous konidia suspension of the causative organism of apple scab Venturia inaequalis and then remain in an incubation cabin at about 20° C. and 100% relative atmospheric humidity for one day.
# The plants are then placed in a greenhouse at about 21° C. and a relative atmospheric humidity of about 90%.
# Evaluation is carried out 12 days after the inoculation. 0% means an efficacy which corresponds to that of the control, whereas an efficacy of 100% means that no infection is observed.
# Puccinia recondita = test: Puccinia test (wheat)/protective; conditions: protective, single active compound, application rate 25 g/ha, 10 days after inoculation
# Procedure: Puccinia Test (Wheat)/Protective
# as §2, §3
# To test for protective activity, young plants are inoculated with a spore suspension of Puccinia recondita in a 0.1% strength aqueous agar solution. After the spray coating had dried on, the plants are sprayed with the active compound preparation at the stated application rate.
# The plants remain in an incubation cabin at 20° C. and 100% relative atmospheric humidity for 24 hours.
# The plants are then placed in a greenhouse at a temperature of about 20° C. and a relative atmospheric humidity of about 80% to promote the development of rust pustules.
# (§11) Evaluation is carried out 10 days after the inoculation. 0% means an efficacy which corresponds to that of the control, whereas an efficacy of 100% means that no infection is observed.
# Fusarium nivale = Fusarium nivale test (triticale)/seed treatment; conditions: dry seed dressing, single active compound, about 3 weeks after sowing
# Procedure: Fusarium nivale Test (Triticale)/Seed Treatment
# as §7, §8
# 2×100 corns of wheat are sown at a depth of 1 cm in standard soil and cultivated in a greenhouse at a temperature of about 10° C. and a relative atmospheric humidity of about 95% in seed trays which receive a light regimen of 15 hours per day.
# as §9
# Leptosphaeria nodorum = Leptosphaeria nodorum test (wheat)/protective; conditions: protective, single active compound, application rate 25 g/ha, 10 days after inoculation
# Procedure: Leptosphaeria nodorum Test (Wheat)/Protective
# as §2, §3, §6
# After the spray coating has dried on, the plants are sprayed with a spore suspension of Leptosphaeria nodorum. The plants remain in an incubation cabin at 20° C. and 100% relative atmospheric humidity for 48 hours.
# The plants are then placed in a greenhouse at a temperature of about 15° C. and a relative atmospheric humidity of about 80%.
# as §11
# [4] = tested on: Erysiphe graminis f. sp. hordei; test: Erysiphe test (barley)/curative; conditions: curative, single active compound, application rate 25 g/ha, evaluation 7 days after inoculation
# Procedure: Erysiphe Test (Barley)/Curative
# as §2, §3
# To test for curative activity, young plants are dusted with spores of Erysiphe graminis f. sp. hordei. 48 hours after the inoculation, the plants are sprayed with the active compound preparation at the stated application rate.
# as §10, §5
# [5] = Podosphaera fuliginea, 240 h, cucumber, protective, single active compound, application rate 12.5 g/ha, evaluation 10 days after inoculation, read-out: Efficacy in %
# [6] = Podosphaera fuliginea, 240 h, cucumber, protective, single active compound, application rate 25 g/ha, evaluation 10 days after inoculation, read-out: Efficacy in %
# [7] = Podosphaera fuliginea, 240 h, cucumber, protective, single active compound, evaluation 10 days after inoculation, read-out: Efficacy in %
# [8] = application rate 75 g/ha as printed
compound,measurement,setting,value
COc1ccc(C(=CC(=O)N2CCOCC2)c2ccc(Cl)cc2)cc1OC [(XVIII)],pest or weed control at 12.5 g/ha,Sphaerotheca fuliginea; [5],0%
Cc1ccc(N(SC(F)(Cl)Cl)S(=O)(=O)N(C)C)cc1 [(IVb)],pest or weed control at 25 g/ha,Sphaerotheca fuliginea; [6],0%
"CC(C)(C)C(O)C(Oc1ccc(Cl)cc1)n1cncn1 (centres unmarked) [(IIb), 1-(4-chloro-phenoxy)-3,3-dimethyl-1-(1,2,4-triazol-1-yl)-butan-2-ol]",pest or weed control at 2.5 g/ha,Sphaerotheca fuliginea; [7],80%
same,Efficacy in %,[1]; application rate 25 g/ha,81%
CC(C)(C)C(O)(CCc1ccc(Cl)cc1)Cn1cncn1 (centres unmarked) [(III)],Efficacy in %,[2],57%
same,Efficacy in %,Rhizoctonia solani,27%
same,pest or weed control at 2.5 g/ha,Sphaerotheca fuliginea; [7],50%
same,Efficacy in %,[1]; application rate 25 g/ha,88%
"CC(C)(C)C(O)C(Oc1ccc(-c2ccccc2)cc1)n1cncn1 (centres unmarked) [(IIc), 1-(4-phenyl-phenoxy)-3,3-dimethyl-1-(1,2,4-triazol-1-yl)-butan-2-ol]",Efficacy in %,Rhizoctonia solani,0%
same,pest or weed control at 2.5 g/ha,Sphaerotheca fuliginea; [7],0%
same,Efficacy in %,Fusarium culmorum,27%
"N#Cc1c[nH]cc1-c1cccc2c1OC(F)(F)O2 [(XXIb), 4-(2,2-difluoro-1,3-benzodioxol-7-yl)-1H-pyrrole-3-carbonitrile]",Efficacy in %,[1]; application rate 6.25 g/ha,38%
"OC(Cc1ccccc1Cl)(Cn1nc[nH]c1=S)C1(Cl)CC1 (centres unmarked) [(I), 2-[2-(1-chlorocyclopropyl)-3-(2-chlorophenyl)-2-hydroxypropyl]-2,4-dihydro-[1,2,4]-triazole-3-thione]",Efficacy in %,[3],83%
same,Efficacy in %,[2],57%
same,Efficacy in %,Rhizoctonia solani,19%
same,Efficacy in %,Venturia inaequalis,1%
same,pest or weed control at 0.5 g/ha,"Sphaerotheca fuliginea; Podosphaera fuliginea, 240 h, cucumber, protective, single active compound, application rate 0.5 g/ha, evaluation 10 days after inoculation, read-out: Efficacy in %",0%
same,pest or weed control at 2.5 g/ha,Sphaerotheca fuliginea; [7],21%
same,Efficacy in %,Fusarium culmorum,32%
same,Efficacy in %,Puccinia recondita,38%
same,Efficacy in %,Fusarium nivale; application rate 25 g/ha,0%
same,Efficacy in %,Fusarium nivale; [8],14%
same,Efficacy in %,Leptosphaeria nodorum,62%
same,Efficacy in %,[4],81%
same,Efficacy in %,[1]; application rate 6.25 g/ha,25%
same,Efficacy in %,[1]; application rate 12.5 g/ha,50%
same,Efficacy in %,[1]; application rate 25 g/ha,75%
CCCOC(=O)NC(C(=O)NC(C)c1ccc(C)cc1)C(C)C (centres unmarked) [(IX)],pest or weed control at 12.5 g/ha,Sphaerotheca fuliginea; [5],13%
CO/N=C(\C1=NOCCO1)c1ccccc1Oc1ncnc(Oc2ccccc2Cl)c1F [(XIV)],pest or weed control at 2.5 g/ha,Sphaerotheca fuliginea; [7],22%
same,Efficacy in %,Puccinia recondita,94%
same,Efficacy in %,Fusarium nivale; [8],94%
same,Efficacy in %,Leptosphaeria nodorum,87%
same,Efficacy in %,[4],75%
same,Efficacy in %,[1]; application rate 12.5 g/ha,0%
CN(C)S(=O)(=O)N(SC(F)(Cl)Cl)c1ccccc1 [(IVa)],pest or weed control at 25 g/ha,"Sphaerotheca fuliginea; Podosphaera fuliginea, 240 h, read-out: Efficacy in %",0%
Cc1cc(C2CC2)nc(Nc2ccccc2)n1 [(XVIb)],pest or weed control at 25 g/ha,Sphaerotheca fuliginea; [6],0%
same,Efficacy in %,[1]; application rate 12.5 g/ha,0%
"Cc1cc(C)nc(Nc2ccccc2)n1 [(XVIa), pyrimethanil]",pest or weed control at 25 g/ha,Sphaerotheca fuliginea; [6],0%
CO/N=C(/C(=O)OC)c1ccccc1COc1ccccc1C [(XIII)],pest or weed control at 2.5 g/ha,Sphaerotheca fuliginea; [7],57%
same,Efficacy in %,[1]; application rate 6.25 g/ha,94%
N#Cc1c(Cl)c(Cl)c(Cl)c(C#N)c1Cl [(XVII)],pest or weed control at 25 g/ha,Sphaerotheca fuliginea; [6],0%
"CCCN(CC)CC1COC2(CCC(C(C)(C)C)CC2)O1 (centres unmarked) [(XI), 8-t-butyl-2-(N-ethyl-N-n-propyl-amino)-methyl-1,4-dioxaspiro-[5,4]-decane]",Efficacy in %,"Sphaerotheca fuliginea; cucumber, protective, single active compound, application rate 12.5 g/ha, evaluation 10 days after inoculation",0%
same,Efficacy in %,[1]; application rate 12.5 g/ha,0%
CCC(C)(NC(=O)c1cc(Cl)c(C)c(Cl)c1)C(=O)CCl (centres unmarked) [(XXIV)],pest or weed control at 12.5 g/ha,Sphaerotheca fuliginea; [5],0%
CO/C=C(/C(=O)OC)c1ccccc1Oc1cc(Oc2ccccc2C#N)ncn1 [(XII)],Efficacy in %,[3],92%
same,pest or weed control at 2.5 g/ha,Sphaerotheca fuliginea; [7],59%
"N#Cc1c[nH]cc1-c1cccc(Cl)c1Cl [(XXIa), 4-(2,3-dichlorophenyl)-pyrrole-3-carbonitrile]",Efficacy in %,Fusarium nivale; application rate 25 g/ha,0%
CSC(=O)c1cccc2nnsc12 [(X)],pest or weed control at 2.5 g/ha,Sphaerotheca fuliginea; [7],0%
CC12CC1(C)C(=O)N(c1cc(Cl)cc(Cl)c1)C2=O (centres unmarked) [(XV)],pest or weed control at 12.5 g/ha,Sphaerotheca fuliginea; [5],0%
CC1(C(=O)Nc2ccc(O)c(Cl)c2Cl)CCCCC1 [(VIII)],pest or weed control at 12.5 g/ha,Sphaerotheca fuliginea; [5],0%
"CC(C)(C)C(=O)C(Oc1ccc(Cl)cc1)n1cncn1 (centres unmarked) [(IIa), 1-(4-chloro-phenoxy)-3,3-dimethyl-1-(1,2,4-triazol-1-yl)-butane-2-one]",pest or weed control at 2.5 g/ha,Sphaerotheca fuliginea; [7],37%
O=C1c2ccccc2C(=O)N1SC(Cl)(Cl)Cl [(XIX)],pest or weed control at 25 g/ha,Sphaerotheca fuliginea; [6],0%
"zinc propylene-1,2-bis-(dithiocarbamate) [(VI)]",Efficacy in %,"Sphaerotheca fuliginea; cucumber, protective, single active compound, application rate 25 g/ha, evaluation 10 days after inoculation",0%

# From patent US9445601B2, “Fungicide active substance combinations” (Bayer Intellectual Property GmbH, priority 1997, dated 2016)
